Measured values reported in patent US20050032124A1, “Identification of genotype-selective agents for treating Huntington's disease” (priority 2003, published 2005).
Values after ≈ are worked out from the molar mass of the structure shown. Where two headings read alike, the source gives them in different places.

Columns and labels:
Assay in all cases: Calcein AM viability assay, dilution-series retest
Type in all cases: cell-based
[1] = tested on: TIP5/TERT/E6 cells; conditions: Homo sapiens, 48 h, read-out: IC50, TIP-TERT/E6
Source text: (§1) In a third series, cell lines derived from independently prepared human TIP5 foreskin fibroblasts created by introducing cDNA constructs encoding hTERT, LT, ST and RASV12 (Lessnick et al., 2002, Cancer Cell 1, 393-401) were used. These cell lines were called, respectively: TIP5/TERT, TIP5/TERT/LT, TIP5/TERT/LT/ST, and TIP5/TERT/LT/ST/RAS^V12. In a fourth series, cell lines derived from TIP5 fibroblasts created by introducing cDNA constructs encoding hTERT, E6, E7, ST and RAS^V12 were used. These cell lines were named, respectively: TIP5/TERT/E6, TIP5/TERT/E6/E7, TIP5/TERT/E6/E7/ST, and TIP5/TERT/E6/E7/ST/RAS^V12. In this series, HPV E6 and E7, which inactivate p53 and RB, respectively, serve a similar function as LT in the previous series. However, by using HPV E6 and E7, Applicants were able to observe the effects of inactivating, separately and independently, p53 and RB. Results of a large-scale screen for compounds that display selective killing of these engineered tumorigenic cell lines are described in the examples that follow.
(§2) Calcein acetoxylmethyl ester (AM) is a cell membrane-permeable, non-fluorescent compound that is cleaved by intracellular esterases to form the anionic, cell-impermeable, fluorescent compound calcein. Viable cells are stained by calcein because of the presence of intracellular esterases and because the intact plasma membrane prevents fluorescent calcein from leaking out of cells (Wang et al., 1993, supra). Cells were seeded in 384-well plates using a Zymark Sciclone ALH, treated with each compound in triplicate at 4 μg/mL in the primary screen for two days, washed with phosphate-buffered saline on a Packard Minitrak with a 384-well washer and incubated for four hours with 0.7 μg/mL calcein (Molecular Probes). Total fluorescence intensity in each well was recorded on a Packard Fusion platereader, and converted to a percent inhibition of signal by subtracting the instrument background and dividing by the average signal obtained when cells were not treated with any compound.
(§3) Replica daughter plates were prepared with a Zymark Sciclone ALH and integrated Twister II by diluting stock plates 50 fold in medium lacking serum and pen/strep to obtain a compound concentration in daughter plates of 80 μg/ml with 2% DMSO. Assay plates were prepared by seeding cells in black, clear bottom 384-well plates in columns 1-23 (6000 cells/well in 57 μl) using a syringe bulk dispenser. Columns 3-22 were treated with compounds from a daughter library plate by transferring 3 μl from the daughter library plate using 384-position fixed cannula array. The final compound concentrations in assay plates were thus 4 μg/ml. The assay plates were incubated for 48 hours at 37° C. in humidified incubator containing 5% CO2. Plate processing for the calcein AM viability assay was performed using an integrated Minitrak/Sidetrak robotic system from Packard Bioscience (Perkin Elmer). Assay plates were washed with phosphate buffered saline, and 20 μl of calcein AM (0.7 μg/ml) per well was added. Plates were incubated at room temperature for 4 hours. Fluorescence intensity was determined using a Fusion platereader with filters centered on an excitation of 485 nm and an emission of 535 nm.
(§4) Compounds to be retested were purchased from manufacturers. Stocks were prepared in DMSO at a concentration of 1 mg/ml in 384-well polypropylene plates with a 16-point, two-fold dilution dose curve of each compound in a column, in duplicates. Column 1-2 and 23-24 were left empty for controls. Daughter retest plates were prepared from stock retest plate by diluting 66.6 fold in DMEM in 384-well deep-deep well plates (4.5 μl transfer into 300 μl). Cells were seeded at a density of 6000 per well in 40 μl, and 20 μl was added from a daughter retest plate. The plates were incubated for two days at 37° C. with 5% CO2.
(§5) Mean RFU (relative fluorescence units) for untreated cells was calculated by averaging columns 1, 2, and 23 (wells with cells but lacking compounds). […]

[2] = tested on: TIP5/TERT/LT/ST cells; conditions: Homo sapiens, 48 h, read-out: IC50, TIP5 TERT/LT/ST
Source text: as §1, §2, §3, §4, §5

[3] = tested on: BJ-TERT/p53DD/CDK4^R24C/D1/ST/RAS^V12 cells; conditions: Homo sapiens, 48 h, read-out: IC50, BJ-TERT/p53DD/CDK4^R24C/cyclineD1/ST/Ras^V12
Source text: These engineered tumorigenic cells make use of dominantly acting viral oncoproteins such as LT, ST, E6 and E7. These viral proteins are possibly involved in cell transformation in specific forms of cancer, namely simian virus 40-induced malignant mesothelioma (Testa and Giordano, 2001, Semin Cancer Biol 11, 31-8) and human papillomavirus-induced cervical carcinoma (Bosch et al., 2002, J Clin Pathol 55, 244-65), and have been used to disrupt p53 and pRB function to transform cells in vitro and in vivo (Elenbaas et al., 2001, Genes Dev 15, 50-65; Jorcyk et al., 1998, Prostate 34, 10-22; Perez-Stable et al., 1997, Cancer Res 57, 900-6; Rich et al., 2001, Cancer Res 61, 3556-60; Sandmoller et al., 1995, Cell Growth Differ 6, 97-103). Applicants made use of these two different methods for inactivating cellular proteins, (they tested the effects of both LT and E6/E7-based inactivation of pRB and p53) in order to control for idiosyncratic effects that might be observed with a specific viral protein. The selectivity of these compounds was also confirmed in a cell line expressing dominant negative inhibitors of p53 and pRB that are not derived from viral elements. This cell line expresses (i) a truncated form of p53 (p53DD) that disrupts tetramerization of endogenous p53, (ii) a CDK4^R24C mutant resistant to inhibition by p16^INK4A and p15^INK4B (the major negative regulators of CDK4) and (iii) cyclin D1. The effects of the nine genotype-selective compounds were tested at a range of concentrations in these cells, which are referred to as BJ-TERT/ p53DD/CDK4^R24C/D1/ST/RAS^V12 cells (Table 1). […] However, the overall results of the analysis were unchanged by the use of non-viral proteins in this cell line (Table 1).
as §2, §3
Compounds to be retested were purchased from manufacturers. […]

[4] = TIP-TERT/E6 cells, 16-point two-fold dilution, two days
[5] = TIP5 TERT/LT/ST cells, 16-point two-fold dilution, two days
[6] = BJ-TERT/p53DD/CDK4^R24C/cyclineD1/ST/Ras^V12 cells, 16-point two-fold dilution, two days

| SMILES | IC50 [1, 4] [µg/mL] | IC50 [2, 5] [µg/mL] | IC50 [3, 6] [µg/mL] | IC50 [1] [µg/mL] | IC50 [2] [µg/mL] | IC50 [3] [µg/mL] |
| --- | --- | --- | --- | --- | --- | --- |
| O=C1c2c(O)ccc(O)c2C(=O)c2c(NCCNCCO)ccc(NCCNCCO)c21 [Mitoxantrone] | 1.25 (≈ 2.81 µM) | 0.625 (≈ 1.41 µM) | 1.25 (≈ 2.81 µM) | – | – | – |
| CCOc1ccccc1-n1c(C(C)N2CCN(C(=O)COc3ccc(Cl)cc3)CC2)nc2ccccc2c1=O (stereo not drawn) [Erastin] | > 5 | 5 (≈ 9.14 µM) | 2.5 (≈ 4.57 µM) | – | – | – |
| CC[C@@]1(O)C(=O)OCc2c1cc1n(c2=O)Cc2cc3ccccc3nc2-1 [Camptothecin] | > 5 | 0.156 (≈ 0.448 µM) | 1.25 (≈ 3.59 µM) | – | – | – |
| COc1ccc(C[C@H]2C(=O)N[C@@H](C)C(=O)N(C)[C@@H]3C(=O)N(C)[C@@H](Cc4ccc(O)c(c4)Oc4ccc(cc4)[C@@H]3O)C(=O)N[C@H](C)C(=O)N[C@@H](C)C(=O)N2C)cc1 [Bouvardin] | – | – | – | 0.078 (≈ 0.101 µM) | 0.039 (≈ 0.0505 µM) | 0.156 (≈ 0.202 µM) |
| CS[C@H]1SC[C@H]2C(=O)N(C)[C@@H](C(C)C)C(=O)OC[C@@H](NC(=O)c3cnc4ccccc4n3)C(=O)N[C@@H](C)C(=O)N(C)[C@@H]1C(=O)N(C)[C@@H](C(C)C)C(=O)OC[C@@H](NC(=O)c1cnc3ccccc3n1)C(=O)N[C@@H](C)C(=O)N2C [Echinomycin] | – | – | – | > 5 | 0.0048 (≈ 0.00436 µM) | 0.078 (≈ 0.0708 µM) |
| COc1cccc2c1C(=O)c1c(O)c3c(c(O)c1C2=O)C[C@@](O)(C(C)=O)C[C@@H]3O[C@H]1C[C@H](N)[C@H](O)[C@H](C)O1 [Daunorubicin] | – | – | – | 5 (≈ 9.48 µM) | 0.625 (≈ 1.18 µM) | 0.625 (≈ 1.18 µM) |
| COc1cccc2c1C(=O)c1c(O)c3c(c(O)c1C2=O)C[C@@](O)(C(=O)CO)C[C@@H]3O[C@H]1C[C@H](N)[C@H](O)[C@H](C)O1 [Doxorubicin] | 5 (≈ 9.2 µM) | 0.625 (≈ 1.15 µM) | 1.25 (≈ 2.3 µM) | – | – | – |
| NC(=O)c1cn([C@@H]2O[C@H](CO)[C@@H](O)[C@H]2O)c2ncnc(N)c12 [Sangivamycin] | – | – | – | 0.156 (≈ 0.504 µM) | 0.039 (≈ 0.126 µM) | 0.078 (≈ 0.252 µM) |
